{"source": "paper PMC6877352", "about": "“Modifying the Siderophore Triacetylfusarinine C for Molecular Imaging of Fungal Infection” (Molecular imaging and biology, 2019)", "key": {"[1]": {"tested_on": "A. fumigatus wildtype (ATCC46645)", "assay": "In vitro uptake assay in A. fumigatus", "type": "cell-based, Aspergillus fumigatus", "details": "iron-starvation condition, 45 min, normalized to [^68Ga]TAFC uptake from the same experiment, n = 3", "method": "For in vitro uptake studies, A. fumigatus wildtype (ATCC46645) was used. Fungal strain was cultured at 37 °C in Aspergillus minimal medium (AMM) containing 1 % (m/v) glucose as carbon source, 20 mM glutamine as nitrogen source, salts, and trace elements. Iron-sufficient media were prepared by adding FeSO4 to a final concentration of 30 μM. For iron-deficient conditions, supplementation of iron was omitted. Iron starvation was verified by the detection of extracellular siderophore production which is suppressed by iron supplementation.\nUptake assays were performed in either iron-deficient or iron-sufficient A. fumigatus wildtype cultures. In a 96-well MultiScreen Filter Plates HTS (1 μm glass fiber filter, Merck Millipore, Darmstadt, Germany), 180 μl of A. fumigatus suspended in iron-replete or iron-depleted medium was added. [^68Ga]siderophores (approx. 1 × 10^5 cpm, 80 nM) were incubated with either PBS pH 7.4 (total series) or blocking solution (10 μM [Fe]TAFC) (non-specific series) at RT for 45 min in quadriplicates. The incubation was interrupted by suction of the medium and the plate was washed twice with ice-cold TRIS-buffered saline (10 mM, pH 7.3). The filters were isolated and the remaining activities were measured in the gamma counter. The uptake was calculated as % uptake of total activity added; each assay was repeated three times. To normalize uptake variations between different fungal cultures, the uptake of each [^68Ga]siderophore was expressed as the ratio to [^68Ga]TAFC uptake from the same experiment. The mean values of three different assays were used to quantitatively compare the difference in uptake between the compounds."}, "[2]": {"tested_on": "A. fumigatus mutant strain ΔsidA/ΔftrA", "assay": "Siderophore utilization growth assay", "type": "cell-based, Aspergillus fumigatus", "details": "37 °C; for degree of utilization / growth support by [Fe]siderophore: 48 h, 0.1-100 μM [Fe]siderophore in AMM; for concentration of [Fe]siderophore at which growth was supported: 48 h incubation", "excerpt": "For siderophore utilization growth assays, A. fumigatus mutant strain ΔsidA/ΔftrA [7], which can grow only in the presence of externally added iron-siderophores or at high iron concentrations, was used. The fungal strain was inoculated in iron-deficient culture as described above.\nTo investigate the ability or inability of A. fumigatus to take up and utilize [Fe]siderophores as iron source, a growth assay with the A. fumigatus mutant strain ΔsidA/ΔftrA was employed. In a 24-well plate, aliquots of 10^3 conidia of mutant strain were point inoculated on 1 ml of AMM containing 0.1, 1, 10, 50, or 100 μM of [Fe]siderophore and incubated at 37 °C for 48 h. For the control, fungi were grown in iron-limited AMM without adding [Fe]siderophore."}}, "data": [{"smiles": "CC(=O)NC1CCCN(O)C(=O)C=C(C)CCOC(=O)C(NC(=O)c2ccccc2)CCCN(O)C(=O)C=C(C)CCOC(=O)C(NC(C)=O)CCCN(O)C(=O)C=C(C)CCOC1=O", "note": "(centres unmarked) (68Ga complex, metal not drawn) [DABzFC]", "values": [{"measurement": "uptake ratio to [^68Ga]TAFC", "setting": "[1]", "result": 0.53}]}, {"smiles": "CC(=O)NC1CCCN(O)C(=O)C=C(C)CCOC(=O)C(NC(=O)CN)CCCN(O)C(=O)C=C(C)CCOC(=O)C(NC(C)=O)CCCN(O)C(=O)C=C(C)CCOC1=O", "note": "(centres unmarked) (68Ga complex, metal not drawn) [DAFC(gly)]", "values": [{"measurement": "uptake ratio to [^68Ga]TAFC", "setting": "[1]", "result": 0.89}, {"measurement": "uptake ratio to [^68Ga]TAFC", "setting": "[1]; listed as [^68Ga]DAFC(gly)", "result": "around 1"}]}, {"smiles": "CC(=O)NC1CCCN(O)C(=O)C=C(C)CCOC(=O)C(NC(=O)CCC(=O)O)CCCN(O)C(=O)C=C(C)CCOC(=O)C(NC(C)=O)CCCN(O)C(=O)C=C(C)CCOC1=O", "note": "(centres unmarked) (68Ga complex, metal not drawn) [DAFC(suc)]", "values": [{"measurement": "uptake ratio to [^68Ga]TAFC", "setting": "[1]", "result": 0.33}]}, {"smiles": "CC(=O)NC1CCCN(O)C(=O)C=C(C)CCOC(=O)C(NC(C)=O)CCCN(O)C(=O)C=C(C)CCOC(=O)C(N)CCCN(O)C(=O)C=C(C)CCOC1=O", "note": "(centres unmarked) (68Ga complex, metal not drawn) [DAFC]", "values": [{"measurement": "uptake ratio to [^68Ga]TAFC", "setting": "[1]", "result": 0.56}]}, {"smiles": "CCC(=O)NC1CCCN(O)C(=O)C=C(C)CCOC(=O)C(NC(C)=O)CCCN(O)C(=O)C=C(C)CCOC(=O)C(NC(C)=O)CCCN(O)C(=O)C=C(C)CCOC1=O", "note": "(centres unmarked) (68Ga complex, metal not drawn) [DAPFC]", "values": [{"measurement": "uptake ratio to [^68Ga]TAFC", "setting": "[1]", "result": 0.99}, {"measurement": "uptake ratio to [^68Ga]TAFC", "setting": "[1]; listed as [^68Ga]DAPFC", "result": "around 1"}]}, {"smiles": "CC1=CC(=O)N(O)CCCC(NC(=O)CN)C(=O)OCCC(C)=CC(=O)N(O)CCCC(NC(=O)CN)C(=O)OCCC(C)=CC(=O)N(O)CCCC(NC(=O)CN)C(=O)OCC1", "note": "(centres unmarked) (68Ga complex, metal not drawn) [FSC(gly)3]", "values": [{"measurement": "uptake ratio to [^68Ga]TAFC", "setting": "[1]", "result": 0.01}, {"measurement": "uptake ratio to [^68Ga]TAFC", "setting": "[1]; listed as [^68Ga]FSC(gly)3", "result": "less than 0.05"}]}, {"smiles": "CC(=O)NC1CCCN(O)C(=O)C=C(C)CCOC(=O)C(NC(=O)CN)CCCN(O)C(=O)C=C(C)CCOC(=O)C(NC(=O)CN)CCCN(O)C(=O)C=C(C)CCOC1=O", "note": "(centres unmarked) (68Ga complex, metal not drawn) [MAFC(gly)2]", "values": [{"measurement": "uptake ratio to [^68Ga]TAFC", "setting": "[1]", "result": 0.03}, {"measurement": "uptake ratio to [^68Ga]TAFC", "setting": "[1]; listed as [^68Ga]MAFC(gly)2", "result": "less than 0.05"}]}, {"smiles": "CC(=O)NC1CCCN(O)C(=O)C=C(C)CCOC(=O)C(NC(=O)CCC(=O)O)CCCN(O)C(=O)C=C(C)CCOC(=O)C(NC(=O)CCC(=O)O)CCCN(O)C(=O)C=C(C)CCOC1=O", "note": "(centres unmarked) (68Ga complex, metal not drawn) [MAFC(suc)2]", "values": [{"measurement": "uptake ratio to [^68Ga]TAFC", "setting": "[1]", "result": 0.04}, {"measurement": "uptake ratio to [^68Ga]TAFC", "setting": "[1]; listed as [^68Ga]MAFC(suc)2", "result": "less than 0.05"}]}, {"smiles": "CC(=O)NC1CCCN(O)C(=O)C=C(C)CCOC(=O)C(N)CCCN(O)C(=O)C=C(C)CCOC(=O)C(N)CCCN(O)C(=O)C=C(C)CCOC1=O", "note": "(centres unmarked) (68Ga complex, metal not drawn) [MAFC]", "values": [{"measurement": "uptake ratio to [^68Ga]TAFC", "setting": "[1]", "result": 0.26}]}, {"smiles": "CCCC(=O)NC1CCCN([O-])C(=O)C=C(C)CCOC(=O)C(NC(C)=O)CCCN([O-])C(=O)C=C(C)CCOC(=O)C(NC(C)=O)CCCN([O-])C(=O)C=C(C)CCOC1=O.[Fe+3]", "note": "(centres unmarked) [[Fe]DABuFC, butanoyl[Fe]DAFC]", "values": [{"measurement": "degree of utilization / growth support by [Fe]siderophore", "setting": "[2]", "result": "Medium degree"}]}, {"smiles": "CC(=O)NC1CCCN([O-])C(=O)C=C(C)CCOC(=O)C(NC(=O)c2ccccc2)CCCN([O-])C(=O)C=C(C)CCOC(=O)C(NC(C)=O)CCCN([O-])C(=O)C=C(C)CCOC1=O.[Fe+3]", "note": "(centres unmarked) [[Fe]DABzFC, benzoyl[Fe]DAFC]", "values": [{"measurement": "degree of utilization / growth support by [Fe]siderophore", "setting": "[2]", "result": "Medium degree"}]}, {"smiles": "CC(=O)NC1CCCN([O-])C(=O)C=C(C)CCOC(=O)C(NC(=O)CN)CCCN([O-])C(=O)C=C(C)CCOC(=O)C(NC(C)=O)CCCN([O-])C(=O)C=C(C)CCOC1=O.[Fe+3]", "note": "(centres unmarked) [[Fe]DAFC(gly), glycyl[Fe]DAFC]", "values": [{"measurement": "degree of utilization / growth support by [Fe]siderophore", "setting": "[2]", "result": "low degree"}, {"measurement": "concentration of [Fe]siderophore at which growth was supported", "setting": "[2]", "result": 1, "unit": "µM"}]}, {"smiles": "CC(=O)NC1CCCN([O-])C(=O)C=C(C)CCOC(=O)C(NC(=O)CCC(=O)O)CCCN([O-])C(=O)C=C(C)CCOC(=O)C(NC(C)=O)CCCN([O-])C(=O)C=C(C)CCOC1=O.[Fe+3]", "note": "(centres unmarked) [[Fe]DAFC(suc), succinyl[Fe]DAFC]", "values": [{"measurement": "degree of utilization / growth support by [Fe]siderophore", "setting": "[2]", "result": "low degree"}, {"measurement": "concentration of [Fe]siderophore at which growth was supported", "setting": "[2]", "result": 1, "unit": "µM"}]}]}
